Results taken from patent US12077503B2, “Substituted cyclic amides and their use as herbicides” (FMC CORPORATION, priority 2015, dated 2024).

Legend:
Assay type in all cases: in vivo
[1] = system: ragweed (common ragweed, Ambrosia elatior); assay: Test A preemergence; details: Ambrosia artemisiifolia, pre-emergence, 240 h, Preemergence
How it was run: (§1)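 Seeds sprayed preemergence with a directed soil spray, or plants at 2 to 10 cm height and one- to two-leaf stage sprayed postemergence, with test chemicals in a non-phytotoxic solvent mixture containing surfactant, in loam soil–sand blend. Injury rated visually against untreated controls after about 10 d in greenhouse, 0 (no effect) to 100 (complete control).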

[2] = system: giant foxtail (Setaria faberii); assay: Test A preemergence; details: Setaria faberi, pre-emergence, 240 h, Preemergence
How it was run: as §1

[3] = system: Kochia (Kochia scoparia); assay: Test A preemergence; details: Bassia scoparia, pre-emergence, 240 h, Preemergence
How it was run: as §1

[4] = system: barnyardgrass (Echinochloa crus-galli); assay: Test A preemergence; details: Echinochloa crus-galli, pre-emergence, 240 h, Preemergence
How it was run: as §1

[5] = system: ryegrass, Italian (Italian ryegrass, Lolium multiflorum); assay: Test A preemergence; details: Lolium multiflorum, pre-emergence, 240 h, Preemergence
How it was run: as §1

[6] = system: pigweed (Amaranthus retroflexus); assay: Test A preemergence; details: Amaranthus retroflexus, pre-emergence, 240 h, Preemergence
[7] = system: wheat (Triticum aestivum); assay: Test A postemergence; details: Triticum aestivum, post-emergence, 240 h, Postemergence
How it was run: as §1

[8] = system: ragweed (common ragweed, Ambrosia elatior); assay: Test A postemergence; details: Ambrosia artemisiifolia, post-emergence, 240 h, Postemergence
How it was run: as §1

[9] = system: giant foxtail (Setaria faberii); assay: Test A postemergence; details: Setaria faberi, post-emergence, 240 h, Postemergence
How it was run: as §1

[10] = system: blackgrass (Alopecurus myosuroides); assay: Test A postemergence; details: Alopecurus myosuroides, post-emergence, 240 h, Postemergence
How it was run: as §1

[11] = system: Kochia (Kochia scoparia); assay: Test A postemergence; details: Bassia scoparia, post-emergence, 240 h, Postemergence
How it was run: as §1

[12] = system: Galium (catchweed bedstraw, Galium aparine); assay: Test A postemergence; details: Galium, post-emergence, 240 h, Postemergence
How it was run: as §1

[13] = system: corn (Zea mays); assay: Test A postemergence; details: Zea mays, post-emergence, 240 h, Postemergence
How it was run: as §1

[14] = system: barnyardgrass (Echinochloa crus-galli); assay: Test A postemergence; details: Echinochloa crus-galli, post-emergence, 240 h, Postemergence
How it was run: as §1

[15] = system: ryegrass, Italian (Italian ryegrass, Lolium multiflorum); assay: Test A postemergence; details: Lolium multiflorum, post-emergence, 240 h, Postemergence
How it was run: as §1

[16] = system: pigweed (Amaranthus retroflexus); assay: Test A postemergence; details: Amaranthus retroflexus, post-emergence, 240 h, Postemergence
How it was run: as §1

[17] = system: sedge, umbrella (small-flower umbrella sedge, Cyperus difformis); assay: Test B flooded paddy test; details: Cyperus difformis, 360 h, Flood, 250 g ai/ha; visually evaluated after 13 to 15 d; read-out: Plant response rating, Sedge, Umbrella (0 to 100 scale where 0 is no effect and 100 is complete control)
How it was run: (§2)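 Plants at 2-leaf stage flooded to 3 cm above soil, with compounds applied directly to paddy water and that depth maintained. Plants kept in greenhouse 13–15 d. Visual rating versus controls on a 0 (no effect) to 100 (complete control) scale.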

[18] = system: ducksalad (Heteranthera limosa); assay: Test B flooded paddy test; details: Heteranthera limosa, 360 h, Flood, 250 g ai/ha; visually evaluated after 13 to 15 d; read-out: Plant response rating, Ducksalad (0 to 100 scale where 0 is no effect and 100 is complete control)
How it was run: as §2

[19] = system: barnyardgrass (Echinochloa crus-galli); assay: Test B flooded paddy test; details: Echinochloa crus-galli, 360 h, Flood, 250 g ai/ha; visually evaluated after 13 to 15 d; read-out: Plant response rating, Barnyardgrass (0 to 100 scale where 0 is no effect and 100 is complete control)
How it was run: as §2

[20] = system: rice (Oryra sativa); assay: Test B flooded paddy test; details: Oryza sativa, 360 h, Flood, 250 g ai/ha; visually evaluated after 13 to 15 d; read-out: Plant response rating, Rice (0 to 100 scale where 0 is no effect and 100 is complete control)
How it was run: as §2

Cc1ccc([C@H]2CN(C)C(=O)[C@@H]2C(=O)Nc2cccnc2F)cc1 [Compound 1398]
pest or weed control at 31 g/ha ([1]; 31 g ai/ha, 0 to 100 scale where 0 is no effect and 100 is complete control, read-out: Ragweed plant response rating): 50%
pest or weed control at 125 g/ha ([1]; 125 g ai/ha, 0 to 100 scale (0 no effect, 100 complete control), read-out: Plant response rating, Ragweed): 90%
pest or weed control at 31 g/ha ([2]; 31 g ai/ha, 0 to 100 scale where 0 is no effect and 100 is complete control, read-out: Foxtail, Giant plant response rating): 100%
pest or weed control at 125 g/ha ([2]; 125 g ai/ha, 0 to 100 scale (0 no effect, 100 complete control), read-out: Plant response rating, Foxtail, Giant): 100%
pest or weed control at 31 g/ha ([3]; 31 g ai/ha, 0 to 100 scale where 0 is no effect and 100 is complete control, read-out: Kochia plant response rating): 100%
pest or weed control at 125 g/ha ([3]; 125 g ai/ha, 0 to 100 scale (0 no effect, 100 complete control), read-out: Plant response rating, Kochia): 90%
pest or weed control at 31 g/ha ([4]; 31 g ai/ha, 0 to 100 scale where 0 is no effect and 100 is complete control, read-out: Barnyardgrass plant response rating): 100%
pest or weed control at 125 g/ha ([4]; 125 g ai/ha, 0 to 100 scale (0 no effect, 100 complete control), read-out: Plant response rating, Barnyardgrass): 100%
pest or weed control at 31 g/ha ([5]; 31 g ai/ha, 0 to 100 scale where 0 is no effect and 100 is complete control, read-out: Ryegrass, Italian plant response rating): 0%
pest or weed control at 125 g/ha ([5]; 125 g ai/ha, 0 to 100 scale (0 no effect, 100 complete control), read-out: Plant response rating, Ryegrass, Italian): 70%
pest or weed control at 31 g/ha ([6]; 31 g ai/ha, 0 to 100 scale where 0 is no effect and 100 is complete control, read-out: Pigweed plant response rating): 0%
pest or weed control at 125 g/ha ([6]; 125 g ai/ha, 0 to 100 scale (0 no effect, 100 complete control), read-out: Plant response rating, Pigweed): 50%
plant injury at 31 g/ha ([7]; 31 g ai/ha, 0 is no effect, 100 is complete control, read-out: Wheat plant response rating (0 to 100 scale)): 0%
plant injury at 125 g/ha ([7]; 125 g ai/ha, visual injury after approx. 10 d, 0 to 100 scale, 0 no effect, 100 complete control, read-out: Plant response rating, Wheat): 60%
pest or weed control at 31 g/ha ([8]; 31 g ai/ha, 0 is no effect, 100 is complete control, read-out: Ragweed plant response rating (0 to 100 scale)): 0%
pest or weed control at 125 g/ha ([8]; 125 g ai/ha, visual injury after approx. 10 d, 0 to 100 scale, 0 no effect, 100 complete control, read-out: Plant response rating, Ragweed): 30%
pest or weed control at 31 g/ha ([9]; 31 g ai/ha, 0 is no effect, 100 is complete control, read-out: Foxtail, Giant plant response rating (0 to 100 scale)): 90%
pest or weed control at 125 g/ha ([9]; 125 g ai/ha, visual injury after approx. 10 d, 0 to 100 scale, 0 no effect, 100 complete control, read-out: Plant response rating, Foxtail, Giant): 90%
pest or weed control at 31 g/ha ([10]; 31 g ai/ha, 0 is no effect, 100 is complete control, read-out: Blackgrass plant response rating (0 to 100 scale)): 20%
pest or weed control at 125 g/ha ([10]; 125 g ai/ha, visual injury after approx. 10 d, 0 to 100 scale, 0 no effect, 100 complete control, read-out: Plant response rating, Blackgrass): 60%
pest or weed control at 31 g/ha ([11]; 31 g ai/ha, 0 is no effect, 100 is complete control, read-out: Kochia plant response rating (0 to 100 scale)): 20%
pest or weed control at 125 g/ha ([11]; 125 g ai/ha, visual injury after approx. 10 d, 0 to 100 scale, 0 no effect, 100 complete control, read-out: Plant response rating, Kochia): 60%
pest or weed control at 31 g/ha ([12]; 31 g ai/ha, 0 is no effect, 100 is complete control, read-out: Galium plant response rating (0 to 100 scale)): 30%
pest or weed control at 125 g/ha ([12]; 125 g ai/ha, visual injury after approx. 10 d, 0 to 100 scale, 0 no effect, 100 complete control, read-out: Plant response rating, Galium): 50%
plant injury at 31 g/ha ([13]; 31 g ai/ha, 0 is no effect, 100 is complete control, read-out: Corn plant response rating (0 to 100 scale)): 0%
Corn plant response rating (crop injury, 0 = no effect, 100 = complete kill) at 125 g/ha ([13]; 125 g ai/ha, visual injury after approx. 10 d, 0 to 100 scale, 0 no effect, 100 complete control): 40%
pest or weed control at 31 g/ha ([14]; 31 g ai/ha, 0 is no effect, 100 is complete control, read-out: Barnyardgrass plant response rating (0 to 100 scale)): 90%
pest or weed control at 125 g/ha ([14]; 125 g ai/ha, visual injury after approx. 10 d, 0 to 100 scale, 0 no effect, 100 complete control, read-out: Plant response rating, Barnyardgrass): 100%
pest or weed control at 31 g/ha ([15]; 31 g ai/ha, 0 is no effect, 100 is complete control, read-out: Ryegrass, Italian plant response rating (0 to 100 scale)): 0%
pest or weed control at 125 g/ha ([15]; 125 g ai/ha, visual injury after approx. 10 d, 0 to 100 scale, 0 no effect, 100 complete control, read-out: Plant response rating, Ryegrass, Italian): 40%
pest or weed control at 31 g/ha ([16]; 31 g ai/ha, 0 is no effect, 100 is complete control, read-out: Pigweed plant response rating (0 to 100 scale)): 0%
pest or weed control at 125 g/ha ([16]; 125 g ai/ha, visual injury after approx. 10 d, 0 to 100 scale, 0 no effect, 100 complete control, read-out: Plant response rating, Pigweed): 0%
pest or weed control at 250 g/ha [17]: 0%
pest or weed control at 250 g/ha [18]: 100%
pest or weed control at 250 g/ha [19]: 80%
pest or weed control at 250 g/ha [20]: 15%
